Tests used:
[1] = tested on: primary human renal mesangial cells; assay: Inhibition of anti-Tn CICs-stimulated mesangial cell proliferation (Ki-67); format: cell-based; conditions: anti-Tn CICs purified from IgAN patients pretreated with 100 mM compound, 30 min at RT
Experimental: […] of serum was mixed with […] of Tn(+)matrix beads or mock beads overnight at 4° C. (10 rpm). Supernatant was collected after pelleting the beads at 500×g for 30 sec at 4° C. After two rounds of such sequential anti-Tn CICs immunodepletion (serum-ID) and its control (serum-Mock), collected serum was filtered by syringe filter unit (Cat #SLHP033RS, Millipore Sigma) before use. Cells were cultured at ~90% confluency in 96-well plate, and starved in Mesangial cell media (Cat #4201) with 0.5% FBS (Cat #0010) and 0.05× mesangial cell growth supplement (MsCGS, Cat #4252) from ScienCell for 24 h at 37° C. prior to stimulation. Cells were stimulated with 5% serum-Mock, 5% serum-ID with or without exogenous anti-Tn CICs (50 ng/[…]/well, total) for 24 h at 37° C. incubator. Cells were fixed with 4% PFA with 0.05% Triton-X-100 in PBS for 20 min at 4° C. Fixed cells were blocked with 5% (vol/vol) goat serum in PBS for 1 h at 4° C., and incubated with anti-Ki-67 antibody (SP6, rabbit IgG, Cat #CRM325B, Biocare Medical, diluted to 1:50) in PBS for 1 h at 4° C. Cells were washed 3× with chilled PBS, and incubated with Alexa Fluor #488-goat anti-rabbit IgG (Cat #A27034, Thermo Fisher Scientific) at 1:400 in PBS for 1 h at 4° C. in the dark. Cells were washed 3× with chilled PBS, and stained with DAPI (diluted to 0.1 mM) in PBS for 10 min at RT, and analyzed using a microscope (AMG EVOS FL digital inverted microscope, Fisher Scientific, ×400 magnification). For inhibition assay, anti-Tn CICs was preincubated with 100 mM α-methylGalNAc, or α-methylGlcNAc in PBS for 30 min at RT. Serum from three healthy controls (C3, C6, and pooled C1-C10; Cmix) and three IgAN (P5, P10, and pooled P1-P10; Pmix) were used in this assay. […] of serum with IgAN (P1-P20) or healthy control (C1-C20) was analyzed on SDS-PAGE gel, and stained with Coomassie.

anti-Tn CICs = assay: ELISA based glycomimetic inhibition assay (anti-Tn CICs binding to IgA1 glycopeptide); parameters: species or system human; conditions: ID18 with ID19 as baseline, serial dilution (1/3) starting at 10 mM
Experimental: IgA1 glycopeptides (ID18, or ID19 as listed in FIG. 2, 0.01 mg/well) were immobilized using immobilization buffer (NaHCO3/Na2CO3, pH 9.6) in a 96-well plate (Thermo Fisher Scientific, PolySorp) overnight at 4° C. The plate was washed 3× with TSM containing 0.05% tween-20 (TSMT) and added 5% (w/v) BSA in TSMT for 1 h at RT. The plate was incubated with 1 mg/ml of purified anti-Tn CICs from IgAN serum (P3, and pooled with P1-P10; Pmix) or healthy donors (C3, and pooled C1-C10; Cmix) in TSMT containing 0.5% BSA for 1 h at RT. The plate was washed 3× with TSMT and incubated for 1 h with HRP-conjugated goat anti-human IgM at 1:1,000 dilution in TSMT containing 0.5% BSA at RT. The plate was washed 3× with TSMT and developed using TMB substrate solution (Cat #ab171523, Abcam) for 30 min, and the reaction was stopped with 1N HCl. Absorbance (450 nm) was read on an ImageXpress #Pico (Molecular Devices). The half-maximal inhibitory concentration (IC50) was calculated with GraphPad Prism 6.0 (GraphPad Software, Inc.) after subtraction from ID19 as a baseline. For inhibition assay, purified anti-Tn CICs were preincubated with a serial dilution (1/3) of α-methylGalNAc or DiαGalNAc (starting at 10 mM) for 30 min at RT.

anti-Tn IgM = assay: Inhibition of anti-Tn antibody binding to Tn glycopeptide array; parameters: species or system human; conditions: glycomimetic 20 mM, 30 min at RT, anti-Tn antibodies C3
Experimental: The Tn glycopeptide microarray was prepared as previously described^77. Briefly, the glycopeptides printed on the microarray is as listed (FIG. 2). Purified anti-Tn antibodies (diluted to […] for IgM, and […] for IgG and IgA detection) in TSM binding buffer (20 mM Tris-HCl, pH 7.4, 150 mM NaCl, 2 mM CaCl2), 2 mM MgCl2, with 1% BSA and 0.05% Tween-20) were added to the respective array slides for 1 h at RT. Alexa Fluor #488-labeled goat anti-human IgM or goat anti-human IgG, or FITC-labeled goat anti-human IgA antibody at 1:400 dilution in TSM binding buffer was used for detection of IgM, IgG, and IgA within purified anti-Tn antibodies. Slides were analyzed on a Genepix^# 4300A microarray scanner (Molecular Devices). Images were analyzed with quantitation software (GenePix® Pro Microarray Analysis Software Ver. 7, Molecular Devices). For inhibition assay, a purified Tn(+)IgA1 produced from CosmcKO Dakiki cells was utilized (See Generation of CosmcKO Dakiki cells using CRISPR-Cas9 system for generating the antibody) to inhibit anti-Tn antibodies binding to microarray and Tn(−)IgA1 produced from Dakiki cells as a […]. Purified anti-Tn antibodies (Cl, 10 mg/ml) in TSM binding buffer was preincubated with 1 mg of purified Tn(+)IgA1, or Tn(−)IgA1 for 30 min at RT. […] Heat map and correlation map of binding preferences were analyzed using GLAD (Glycan Array Dashboard).

Structure (SMILES)	inhibition of proliferative activity of anti-Tn CICs from IgAN patients toward mesangial cells [1]	inhibition of anti-Tn CICs binding to IgA1 glycopeptide (anti-Tn CICs)	inhibition of anti-Tn CICs binding to IgA1 glycopeptide (anti-Tn CICs; listed as Di αGalNAc)	inhibition of anti-Tn antibody (IgM) binding to Tn glycopeptide array (anti-Tn IgM)
CO[C@H]1O[C@H](CO)[C@@H](O)[C@H](O)[C@H]1NC(C)=O [α-methylGlcNAc, reference compound]	did not inhibit the mesangial cell proliferation	–	–	–
CC(=O)N[C@H]1[C@@H](OCCSCCO[C@H]2O[C@H](CO)[C@H](O)[C@H](O)[C@H]2NC(C)=O)O[C@H](CO)[C@H](O)[C@@H]1O [DiαGalNAc, α-D-2-Ethylthio 2-acetamido-galactopyranosyl α-D-2-Ethylthio 2-acetamido-galactopyranoside]	–	A higher inhibition of anti-Tn CICs binding	specifically inhibits the binding of anti-Tn CICs to IgA1 glycopeptide	higher inhibition compared to α-methylGalNAc

From patent US20260328779A1, “METHODS AND COMPOSITIONS FOR THE DIAGNOSIS AND TREATMENT OF IGA NEPHROPATHY” (Beth Israel Deaconess Medical Center, Inc., priority 2022, published 2026)
